Assay results reported in patent publication US20050250801A1, “Method of treating cancer with azaspirane compositions” (priority 2003, published 2005).
Read-outs that look alike come from different tables or passages of the source.

How the values were obtained:
Type in all cases: cell-based
LOX IMVI = test: NCI in vitro SRB assay, Melanoma; details: for GI50 / CC50: Homo sapiens
Description: (§1) An in vitro assay which tested the ability of N,N,-diethyl-8,8-dipropyl-2-azaspiro[4,5]decane-2-propanamine dimaleate (Compound 1) to inhibit the growth of known cancer cell lines was performed by the National Cancer Institute in accordance with standard procedures. See: Lin, Z. X., Hoult, J. R., and Raman, A. Sulphorhodamine B assay for measuring proliferation of a pigmented melanocyte cell line and its application to the evaluation of crude drugs used in the treatment of vitiligo. J Ethnopharmacol. 66: 141-150, 1999. Briefly, selected tumor cell lines were cultured in media containing five different concentrations of Compound 1. After 48 hours of continuous exposure, a sulforhodamine B (SRB) assay was used to estimate cell viability or growth via optical measurements.
(§2) From the measurements, the following values were determined: 1) the concentration of Compound 1 at which a tumor cell growth inhibition of 50% (relative to control) occurs (GI50), 2) the concentration of Compound 1 at which no growth occurs (total growth inhibition, TGI), and 3) the concentration of Compound 1 at which the […] (LC 50). […] FIG. 6 illustrates, graphically, tumor cell growth as a function of Compound 1 concentration of the scanned tumor cell lines.

UACC-62 = test: NCI in vitro SRB assay, Melanoma; details: for CC50 / GI50: Homo sapiens
Description: as §1, §2

SK-MEL-5 = test: NCI in vitro SRB assay, Melanoma; details: for CC50 / GI50: Homo sapiens
Description: as §1, §2

SK-MEL-2 = test: NCI in vitro SRB assay, Melanoma; details: for CC50 / GI50: Homo sapiens
Description: as §1, §2

MALME-3M = test: NCI in vitro SRB assay, Melanoma; details: for CC50 / GI50: Homo sapiens, Malme-3M
Description: as §1, §2

SK-MEL-28 = test: NCI in vitro SRB assay, Melanoma; details: for CC50 / GI50: Homo sapiens
Description: as §1, §2

IGROV1 = test: NCI in vitro SRB assay, Ovarian Cancer
Description: as §1, §2

OVCAR-4 = test: NCI in vitro SRB assay, Ovarian Cancer
Description: as §1, §2

SK-OV-3 = test: NCI in vitro SRB assay, Ovarian Cancer
Description: as §1, §2

OVCAR-3 = test: NCI in vitro SRB assay, Ovarian Cancer
Description: as §1, §2

OVCAR-8 = test: NCI in vitro SRB assay, Ovarian Cancer
Description: as §1, §2

OVCAR-5 = test: NCI in vitro SRB assay, Ovarian Cancer
Description: as §1, §2

[1] = read-out: Log10 GI50 (converted)
[2] = read-out: Log10 LC50 (converted)
[3] = UACC-62, Log10 conc -4.0 Moles/L
[4] = UACC-62, Log10 conc -5.0 Moles/L
[5] = UACC-62, Log10 conc -6.0 Moles/L
[6] = UACC-62, Log10 conc -7.0 Moles/L
[7] = UACC-62, Log10 conc -8.0 Moles/L
[8] = SK-MEL-5, Log10 conc -4.0 Moles/L
[9] = SK-MEL-5, Log10 conc -5.0 Moles/L
[10] = SK-MEL-5, Log10 conc -6.0 Moles/L
[11] = SK-MEL-5, Log10 conc -7.0 Moles/L
[12] = SK-MEL-5, Log10 conc -8.0 Moles/L
[13] = SK-MEL-2, Log10 conc -4.0 Moles/L
[14] = SK-MEL-2, Log10 conc -5.0 Moles/L
[15] = SK-MEL-2, Log10 conc -6.0 Moles/L
[16] = SK-MEL-2, Log10 conc -7.0 Moles/L
[17] = SK-MEL-2, Log10 conc -8.0 Moles/L
[18] = MALME-3M, Log10 conc -4.0 Moles/L
[19] = MALME-3M, Log10 conc -5.0 Moles/L
[20] = MALME-3M, Log10 conc -6.0 Moles/L
[21] = MALME-3M, Log10 conc -7.0 Moles/L
[22] = MALME-3M, Log10 conc -8.0 Moles/L
[23] = SK-MEL-28, Log10 conc -4.0 Moles/L
[24] = SK-MEL-28, Log10 conc -5.0 Moles/L
[25] = SK-MEL-28, Log10 conc -6.0 Moles/L
[26] = SK-MEL-28, Log10 conc -7.0 Moles/L
[27] = SK-MEL-28, Log10 conc -8.0 Moles/L

CCCC1(CCC)CCC2(CCN(CCCN(CC)CC)C2)CC1.O=C(O)/C=C\C(=O)O.O=C(O)/C=C\C(=O)O [Compound 1, N,N,-diethyl-8,8-dipropyl-2-azaspiro[4,5]decane-2-propanamine dimaleate]
Log10 TGI (LOX IMVI): −5.74
TGI (LOX IMVI): 1.84 µM
GI50 (LOX IMVI; read-out: GI50): 515 nM
CC50 (LOX IMVI; read-out: LC50): 4.29 µM
GI50 (LOX IMVI; [1]): 513 nM
CC50 (LOX IMVI; [2]): 4.27 µM
Mean Optical Densities (LOX IMVI; Log10 conc -4.0 Moles/L): −0.030
Percent Growth (LOX IMVI; Log10 conc -4.0 Moles/L): −100%
Mean Optical Densities (LOX IMVI; Log10 conc -5.0 Moles/L): −0.044
Percent Growth (LOX IMVI; Log10 conc -5.0 Moles/L): −100%
Mean Optical Densities (LOX IMVI; Log10 conc -6.0 Moles/L): 0.595
Percent Growth (LOX IMVI; Log10 conc -6.0 Moles/L): 36%
Mean Optical Densities (LOX IMVI; Log10 conc -7.0 Moles/L): 1.037
Percent Growth (LOX IMVI; Log10 conc -7.0 Moles/L): 85%
Mean Optical Densities (LOX IMVI; Log10 conc -8.0 Moles/L): 1.072
Percent Growth (LOX IMVI; Log10 conc -8.0 Moles/L): 89%
CC50 (UACC-62; UACC-62, read-out: LC50): 2530 nM
CC50 (UACC-62; UACC-62, read-out: Log10 LC50 (converted)): 2510 nM
GI50 (UACC-62; UACC-62, read-out: GI50): 218 nM
GI50 (UACC-62; UACC-62, read-out: Log10 GI50 (converted)): 219 nM
Log10 TGI (UACC-62; UACC-62): −6.19
TGI (UACC-62; UACC-62): 642 nM
Mean Optical Densities (UACC-62; [3]): 0.060
Percent Growth (UACC-62; [3]): −89%
Mean Optical Densities (UACC-62; [4]): 0.034
Percent Growth (UACC-62; [4]): −94%
Mean Optical Densities (UACC-62; [5]): 0.421
Percent Growth (UACC-62; [5]): −21%
Mean Optical Densities (UACC-62; [6]): 1.379
Percent Growth (UACC-62; [6]): 86%
Mean Optical Densities (UACC-62; [7]): 1.375
Percent Growth (UACC-62; [7]): 85%
CC50 (SK-MEL-5; SK-MEL-5, read-out: LC50): 5.25 µM
CC50 (SK-MEL-5; SK-MEL-5, read-out: Log10 LC50 (converted)): 5.25 µM
GI50 (SK-MEL-5; SK-MEL-5, read-out: GI50): 1280 nM
GI50 (SK-MEL-5; SK-MEL-5, read-out: Log10 GI50 (converted)): 1290 nM
Log10 TGI (SK-MEL-5; SK-MEL-5): −5.59
TGI (SK-MEL-5; SK-MEL-5): 2.59 µM
Mean Optical Densities (SK-MEL-5; [8]): −0.001
Percent Growth (SK-MEL-5; [8]): −100%
Mean Optical Densities (SK-MEL-5; [9]): 0.021
Percent Growth (SK-MEL-5; [9]): −96%
Mean Optical Densities (SK-MEL-5; [10]): 1.420
Percent Growth (SK-MEL-5; [10]): 68%
Mean Optical Densities (SK-MEL-5; [11]): 1.797
Percent Growth (SK-MEL-5; [11]): 95%
Mean Optical Densities (SK-MEL-5; [12]): 1.779
Percent Growth (SK-MEL-5; [12]): 93%
CC50 (SK-MEL-2; SK-MEL-2, read-out: LC50): > 100 µM
CC50 (SK-MEL-2; SK-MEL-2, read-out: Log10 LC50 (converted)): > 100 µM
GI50 (SK-MEL-2; SK-MEL-2, read-out: GI50): 3.45 µM
GI50 (SK-MEL-2; SK-MEL-2, read-out: Log10 GI50 (converted)): 3.47 µM
Log10 TGI (SK-MEL-2; SK-MEL-2): >−4.00
TGI (SK-MEL-2; SK-MEL-2): >100 µM
Mean Optical Densities (SK-MEL-2; [13]): 0.168
Percent Growth (SK-MEL-2; [13]): 7%
Mean Optical Densities (SK-MEL-2; [14]): 0.167
Percent Growth (SK-MEL-2; [14]): 7%
Mean Optical Densities (SK-MEL-2; [15]): 1.199
Percent Growth (SK-MEL-2; [15]): 100%
Mean Optical Densities (SK-MEL-2; [16]): 1.191
Percent Growth (SK-MEL-2; [16]): 99%
Mean Optical Densities (SK-MEL-2; [17]): 1.191
Percent Growth (SK-MEL-2; [17]): 99%
CC50 (MALME-3M; read-out: LC50): 5.9 µM
CC50 (MALME-3M; [2]): 5.89 µM
GI50 (MALME-3M; read-out: GI50): 1600 nM
GI50 (MALME-3M; [1]): 1580 nM
Log10 TGI (MALME-3M; MALME-3M): −5.51
TGI (MALME-3M; MALME-3M): 3.07 µM
Mean Optical Densities (MALME-3M; [18]): 0.084
Percent Growth (MALME-3M; [18]): −91%
Mean Optical Densities (MALME-3M; [19]): 0.089
Percent Growth (MALME-3M; [19]): −91%
Mean Optical Densities (MALME-3M; [20]): 1.108
Percent Growth (MALME-3M; [20]): 86%
Mean Optical Densities (MALME-3M; [21]): 1.047
Percent Growth (MALME-3M; [21]): 55%
Mean Optical Densities (MALME-3M; [22]): 1.103
Percent Growth (MALME-3M; [22]): 84%
CC50 (SK-MEL-28; SK-MEL-28, read-out: LC50): 4.86 µM
CC50 (SK-MEL-28; SK-MEL-28, read-out: Log10 LC50 (converted)): 4.9 µM
GI50 (SK-MEL-28; SK-MEL-28, read-out: GI50): 561 nM
GI50 (SK-MEL-28; SK-MEL-28, read-out: Log10 GI50 (converted)): 562 nM
Log10 TGI (SK-MEL-28; SK-MEL-28): −5.72
TGI (SK-MEL-28; SK-MEL-28): 1.89 µM
Mean Optical Densities (SK-MEL-28; [23]): 0.026
Percent Growth (SK-MEL-28; [23]): −95%
Mean Optical Densities (SK-MEL-28; [24]): 0.061
Percent Growth (SK-MEL-28; [24]): −88%
Mean Optical Densities (SK-MEL-28; [25]): 0.846
Percent Growth (SK-MEL-28; [25]): 34%
Mean Optical Densities (SK-MEL-28; [26]): 1.473
Percent Growth (SK-MEL-28; [26]): 98%
Mean Optical Densities (SK-MEL-28; [27]): 1.301
Percent Growth (SK-MEL-28; [27]): 80%
CC50 (IGROV1; Homo sapiens, IGROV-1, read-out: Log10 LC50 (converted)): > 100 µM
GI50 (IGROV1; Homo sapiens, IGROV-1, IGROV1, read-out: Log10 GI50 (converted)): 2450 nM
Log10 TGI (IGROV1; IGROV1): >−4.00
CC50 (OVCAR-4; Homo sapiens, OVCAR-4, read-out: Log10 LC50 (converted)): 6.61 µM
GI50 (OVCAR-4; Homo sapiens, OVCAR-4, read-out: Log10 GI50 (converted)): 1620 nM
Log10 TGI (OVCAR-4; OVCAR-4): −5.49
CC50 (SK-OV-3; Homo sapiens, SK-OV-3, read-out: Log10 LC50 (converted)): 58.9 µM
GI50 (SK-OV-3; Homo sapiens, SK-OV-3, read-out: Log10 GI50 (converted)): 4.57 µM
Log10 TGI (SK-OV-3; SK-OV-3): −5.10
Log10 TGI (OVCAR-3): −5.21
GI50 (OVCAR-3; Homo sapiens, read-out: Log10 GI50 (converted)): 2340 nM
CC50 (OVCAR-8; Homo sapiens, OVCAR-8, read-out: Log10 LC50 (converted)): > 100 µM
GI50 (OVCAR-8; Homo sapiens, OVCAR-8, read-out: Log10 GI50 (converted)): 2690 nM
Log10 TGI (OVCAR-8; OVCAR-8): −4.92
CC50 (OVCAR-5; Homo sapiens, OVCAR-5, read-out: Log10 LC50 (converted)): 7.08 µM
GI50 (OVCAR-5; Homo sapiens, OVCAR-5, read-out: Log10 GI50 (converted)): 2400 nM
Log10 TGI (OVCAR-5; OVCAR-5): −5.39
